# Tested on: green peach aphid (Myzus persicae)
# Assay: Myzus persicae spray test (Chinese cabbage leaf discs)
# Format: in vivo
# Settings: application rate 500 g/ha; after 5 or 6 days; Chinese cabbage leaf discs
# Description: Myzus persicae—Spray Test
# Solvent: 78 parts by weight of acetone • • 1.5 parts by weight of dimethylformamide
# (§1) Emulsifier: alkylaryl polyglycol ether
# (§2) To produce a suitable active compound preparation, 1 part by weight of active compound is dissolved using the stated parts by weight of solvent and made up with water containing an emulsifier concentration of 1000 ppm until the desired concentration is attained. To produce further test concentrations, the preparation is diluted with emulsifier-containing water.
# Discs of Chinese cabbage leaves (Brassica pekinensis) infested by all stages of the green peach aphid (Myzus persicae) are sprayed with an active compound preparation of the desired concentration.
# After 5 or 6 days, the efficacy in % is determined. 100% means that all the aphids were killed; 0% means that no aphids were killed.
row,SMILES,efficacy (aphids killed) [%]
1,CCSc1ncc(C(=O)N(C)c2cccnc2)n1C [I-A-36],90
2,CCS(=O)(=O)c1ncc(C(=O)N(C)c2cccnc2)n1C [I-A-40],100
3,CN(C(=O)c1cnc(SCC(F)(F)C(F)(F)Cl)n1C)c1cccnc1 [I-A-46],100
4,CN(C(=O)c1cnc(SCCC(F)(F)F)n1C)c1cccnc1 [I-A-47],100
5,CN(C(=O)c1cnc(SCCCF)n1C)c1cccnc1 [I-A-48],100
6,CN(C(=O)c1cnc(SCC(F)(F)C(F)F)n1C)c1cccnc1 [I-A-49],100
7,CN(C(=O)c1cnc(SCCSCC(F)(F)F)n1C)c1cccnc1 [I-A-50],100
8,CN(C(=O)c1cnc(SC2CCSCC2)n1C)c1cccnc1 [I-A-51],100
9,CN(C(=O)c1cnc(SC2CCOCC2)n1C)c1cccnc1 [I-A-52],100
10,CC(C)CCSc1ncc(C(=O)N(C)c2cccnc2)n1C [I-A-53],100
11,CN(C(=O)c1cnc(SC2COC2)n1C)c1cccnc1 [I-A-54],100
12,COc1ccc(Sc2ncc(C(=O)N(C)c3cccnc3)n2C)cc1 [I-A-58],90
13,CN(C)c1ccc(Sc2ncc(C(=O)N(C)c3cccnc3)n2C)cc1 [I-A-59],90
14,CN(C(=O)c1cnc(Sc2cc(Cl)ccc2Cl)n1C)c1cccnc1 [I-A-60],90
15,CN(C(=O)c1cnc(Sc2cccc(C(F)(F)F)c2)n1C)c1cccnc1 [I-A-61],90
16,CN(C(=O)c1cnc(Sc2ccc(Cl)c(C(F)(F)F)c2)n1C)c1cccnc1 [I-A-64],90
17,CN(C(=O)c1cnc(Sc2ccccn2)n1C)c1cccnc1 [I-A-65],100
18,CN(C(=O)c1cnc([S+]([O-])c2cc(Cl)cc(Cl)c2)n1C)c1cccnc1 (stereo not shown) [I-A-77],90
19,Cc1ccc(Sc2ncc(C(=O)N(C)c3cccnc3)n2C)nc1 [I-A-109],90

# Tested on: green peach aphid (Myzus persicae)
# Assay: Contrasting example: Myzus persicae spray test (MYZUPE)
# Format: in vivo
# Settings: MYZUPE, 100 g ai/ha, 5 dat
# Description: Myzus persicae—Spray Test (MYZUPE)
# Solvents: 78.0 parts by weight of acetone • • 1.5 parts by weight of dimethylformamide
# as §1, §2
# Discs of Chinese cabbage leaves (Brassica pekinensis), infested by all stages of the green peach aphid (Myzus persicae) are sprayed with an active compound preparation of the desired concentration.
# After the desired period of time, the efficacy in % is determined. 100% means that all aphids were killed; 0% means that no aphids were killed.
row,SMILES,% efficacy [%]
1,CN(C(=O)c1cnc(SCC(F)(F)C(F)(F)Cl)n1C)c1cccnc1 [I-A-46],90
2,CN(C(=O)c1cnc(SCCC(F)(F)F)n1C)c1cccnc1 [I-A-47],90
3,CN(C(=O)c1cnc(SCCCF)n1C)c1cccnc1 [I-A-48],90
4,CN(C(=O)c1cnc(SCC(F)(F)C(F)F)n1C)c1cccnc1 [I-A-49],90
5,CN(C(=O)c1cnc(SCCSCC(F)(F)F)n1C)c1cccnc1 [I-A-50],100
6,CN(C(=O)c1cnc(SC2CCSCC2)n1C)c1cccnc1 [I-A-51],100
7,CN(C(=O)c1cnc(SC2CCOCC2)n1C)c1cccnc1 [I-A-52],100
8,CC(C)CCSc1ncc(C(=O)N(C)c2cccnc2)n1C [I-A-53],100
9,CN(C(=O)c1cnc(SC2COC2)n1C)c1cccnc1 [I-A-54],90

# Same assay, conditions: MYZUPE, 100 g ai/ha, 6 dat
row,SMILES,% efficacy [%]
1,CCSc1ncc(C(=O)N(C)c2cccnc2)n1C [I-A-36],90
2,CCS(=O)(=O)c1ncc(C(=O)N(C)c2cccnc2)n1C [I-A-40],90
3,CN(C(=O)c1cnc(Sc2cc(Cl)c(Cl)cc2Cl)n1C)c1cccnc1 [I-A-56],70
4,COc1ccc(Sc2ncc(C(=O)N(C)c3cccnc3)n2C)cc1 [I-A-58],70
5,CN(C)c1ccc(Sc2ncc(C(=O)N(C)c3cccnc3)n2C)cc1 [I-A-59],90
6,CN(C(=O)c1cnc(Sc2cc(Cl)ccc2Cl)n1C)c1cccnc1 [I-A-60],70
7,CN(C(=O)c1cnc(Sc2cccc(C(F)(F)F)c2)n1C)c1cccnc1 [I-A-61],90
8,CN(C(=O)c1cnc(Sc2ccc(Cl)c(C(F)(F)F)c2)n1C)c1cccnc1 [I-A-64],70
9,CN(C(=O)c1cnc(Sc2ccccn2)n1C)c1cccnc1 [I-A-65],100
10,CN(C(=O)c1cnc([S+]([O-])c2cc(Cl)cc(Cl)c2)n1C)c1cccnc1 (stereo not shown) [I-A-77],70
11,Cc1ccc(Sc2ncc(C(=O)N(C)c3cccnc3)n2C)nc1 [I-A-109],70

# Same assay, conditions: Myzus persicae, 144 h; MYZUPE, 100 g ai/ha, 6 dat; read-out: % efficacy
row,SMILES,pest or weed control at 100 g/ha [%]
1,CNC(=O)C[S+]([O-])c1ncc(C(=O)N(C)c2cccnc2)n1C (stereo not shown) [I-A-43],70

# Tested on: not listed separately
# Assay: log P by HPLC on reversed-phase C18 columns (OECD Guideline 117)
# Format: physicochemical
# Settings: method [a]
# Description: The log P values were determined in accordance with OECD Guideline 117 (EC Directive 92/69/EEC) by HPLC (high-performance liquid chromatography) using reversed-phase (RP) columns (C18), by the following methods:
# [a] The LC-MS determination in the acidic range was carried out at pH 2.7 with 0.1% aqueous formic acid and acetonitrile (contains 0.1% formic acid) as mobile phases; linear gradient from 10% acetonitrile to 95% acetonitrile.
# [b] LC-MS determination in the neutral range was carried out at pH 7.8 with 0.001 molar aqueous ammonium hydrogencarbonate solution and acetonitrile as mobile phases; linear gradient from 10% acetonitrile to 95% acetonitrile.
row,SMILES,logP[a]
1,CCSc1ncc(C(=O)N(C)c2cccnc2)n1C [I-A-36],0.95
2,CCS(=O)(=O)c1ncc(C(=O)N(C)c2cccnc2)n1C [I-A-40],0.68
3,CN(C(=O)c1cnc(SCC(F)(F)C(F)(F)Cl)n1C)c1cccnc1 [I-A-46],2.09
4,CN(C(=O)c1cnc(SCCC(F)(F)F)n1C)c1cccnc1 [I-A-47],1.65
5,CN(C(=O)c1cnc(SCCCF)n1C)c1cccnc1 [I-A-48],1.11
6,CN(C(=O)c1cnc(SCC(F)(F)C(F)F)n1C)c1cccnc1 [I-A-49],1.55
7,CN(C(=O)c1cnc(SCCSCC(F)(F)F)n1C)c1cccnc1 [I-A-50],1.94
8,CN(C(=O)c1cnc(SC2CCSCC2)n1C)c1cccnc1 [I-A-51],1.47
9,CN(C(=O)c1cnc(SC2CCOCC2)n1C)c1cccnc1 [I-A-52],0.90
10,CC(C)CCSc1ncc(C(=O)N(C)c2cccnc2)n1C [I-A-53],2.68
11,CN(C(=O)c1cnc(SC2COC2)n1C)c1cccnc1 [I-A-54],0.63
12,CN(C(=O)c1cnc(Sc2cc(Cl)c(Cl)cc2Cl)n1C)c1cccnc1 [I-A-56],2.86
13,COc1ccc(Sc2ncc(C(=O)N(C)c3cccnc3)n2C)cc1 [I-A-58],1.62
14,CN(C)c1ccc(Sc2ncc(C(=O)N(C)c3cccnc3)n2C)cc1 [I-A-59],1.55
15,CN(C(=O)c1cnc(Sc2cc(Cl)ccc2Cl)n1C)c1cccnc1 [I-A-60],2.55
16,CN(C(=O)c1cnc(Sc2ccc(Cl)c(C(F)(F)F)c2)n1C)c1cccnc1 [I-A-64],2.63
17,CN(C(=O)c1cnc(Sc2ccccn2)n1C)c1cccnc1 [I-A-65],1.01

# Same assay, conditions: method [b]
row,SMILES,logP[b]
1,CCSc1ncc(C(=O)N(C)c2cccnc2)n1C [I-A-36],1.31
2,CCS(=O)(=O)c1ncc(C(=O)N(C)c2cccnc2)n1C [I-A-40],0.88
3,CN(C(=O)c1cnc(SCC(F)(F)C(F)(F)Cl)n1C)c1cccnc1 [I-A-46],2.17
4,CN(C(=O)c1cnc(SCCC(F)(F)F)n1C)c1cccnc1 [I-A-47],1.84
5,CN(C(=O)c1cnc(SCCCF)n1C)c1cccnc1 [I-A-48],1.40
6,CN(C(=O)c1cnc(SCC(F)(F)C(F)F)n1C)c1cccnc1 [I-A-49],1.71
7,CN(C(=O)c1cnc(SCCSCC(F)(F)F)n1C)c1cccnc1 [I-A-50],2.10
8,CN(C(=O)c1cnc(SC2CCSCC2)n1C)c1cccnc1 [I-A-51],1.73
9,CN(C(=O)c1cnc(SC2CCOCC2)n1C)c1cccnc1 [I-A-52],1.25
10,CC(C)CCSc1ncc(C(=O)N(C)c2cccnc2)n1C [I-A-53],2.76
11,CN(C(=O)c1cnc(SC2COC2)n1C)c1cccnc1 [I-A-54],0.98
12,CN(C(=O)c1cnc(Sc2cc(Cl)c(Cl)cc2Cl)n1C)c1cccnc1 [I-A-56],2.92
13,COc1ccc(Sc2ncc(C(=O)N(C)c3cccnc3)n2C)cc1 [I-A-58],1.79
14,CN(C)c1ccc(Sc2ncc(C(=O)N(C)c3cccnc3)n2C)cc1 [I-A-59],2.11
15,CN(C(=O)c1cnc(Sc2cc(Cl)ccc2Cl)n1C)c1cccnc1 [I-A-60],2.58
16,CN(C(=O)c1cnc(Sc2ccc(Cl)c(C(F)(F)F)c2)n1C)c1cccnc1 [I-A-64],2.71
17,CN(C(=O)c1cnc(Sc2ccccn2)n1C)c1cccnc1 [I-A-65],1.18

# Same assay, conditions: reversed-phase C18 HPLC column, pH 2.7, method [a]; read-out: logP[a]
row,SMILES,chromatographic logP
1,CNC(=O)C[S+]([O-])c1ncc(C(=O)N(C)c2cccnc2)n1C (stereo not shown) [I-A-43],0.27

# Same assay, conditions: reversed-phase C18 HPLC column, pH 7.8, method [b]; read-out: logP[b]
row,SMILES,chromatographic logP
1,CNC(=O)C[S+]([O-])c1ncc(C(=O)N(C)c2cccnc2)n1C (stereo not shown) [I-A-43],0.22

# Source: patent publication US10368545B2, “Substituted 2-thioimidazolylcarboxamides as pesticides” (BAYER CROPSCIENCE AKTIENGESELLSCHAFT, priority 2015, dated 2019)
